Experimental data from ChEMBL document CHEMBL1201862, “PubChem BioAssay data set” (2004).
Activity calls are given as the source filed them.

What was measured:
[1] = target: T1, Corticotropin-releasing factor receptor 2/Corticotropin-releasing factor-binding protein (Homo sapiens, UniProt P24387+Q13324); assay: activators of CRF receptor 2 with binding protein – uHTS hits, confirmation (AID 602473); format: functional; conditions: read-out: EC50_Mean
T1 sequence (Q13324 whole entry): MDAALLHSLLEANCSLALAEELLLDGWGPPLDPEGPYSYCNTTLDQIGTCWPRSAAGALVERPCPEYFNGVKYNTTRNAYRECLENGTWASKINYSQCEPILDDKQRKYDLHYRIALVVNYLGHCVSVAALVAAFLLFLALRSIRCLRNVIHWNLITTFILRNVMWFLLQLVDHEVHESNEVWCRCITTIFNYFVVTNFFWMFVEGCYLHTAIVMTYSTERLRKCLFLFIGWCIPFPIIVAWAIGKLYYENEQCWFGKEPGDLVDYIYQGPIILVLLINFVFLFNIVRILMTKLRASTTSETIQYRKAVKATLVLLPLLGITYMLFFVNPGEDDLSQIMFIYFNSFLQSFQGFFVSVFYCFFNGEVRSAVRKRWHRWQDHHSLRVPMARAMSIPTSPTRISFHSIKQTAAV
T1 sequence (P24387 whole entry): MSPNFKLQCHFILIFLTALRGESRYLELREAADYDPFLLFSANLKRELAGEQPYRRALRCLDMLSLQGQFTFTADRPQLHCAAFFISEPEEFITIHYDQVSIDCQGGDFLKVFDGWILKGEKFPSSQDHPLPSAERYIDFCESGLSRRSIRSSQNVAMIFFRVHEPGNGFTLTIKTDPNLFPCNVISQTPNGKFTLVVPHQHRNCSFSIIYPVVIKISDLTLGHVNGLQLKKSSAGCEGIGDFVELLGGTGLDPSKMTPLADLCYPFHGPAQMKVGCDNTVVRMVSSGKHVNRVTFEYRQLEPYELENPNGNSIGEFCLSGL

[2] = target: T1, Corticotropin-releasing factor receptor 2/Corticotropin-releasing factor-binding protein; assay: Dose Response confirmation of uHTS hits for small molecule antagonists of the CRF-binding protein and CRF-R2 receptor complex.; format: functional; conditions: read-out: IC50_Mean
[3] = target: Cytochrome P450 3A4 (Homo sapiens, UniProt P08684);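 note: CYP3A4 tested as one member of a cytochrome P450 panel screen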
Chain of Cytochrome P450 3A4 (P08684 whole entry): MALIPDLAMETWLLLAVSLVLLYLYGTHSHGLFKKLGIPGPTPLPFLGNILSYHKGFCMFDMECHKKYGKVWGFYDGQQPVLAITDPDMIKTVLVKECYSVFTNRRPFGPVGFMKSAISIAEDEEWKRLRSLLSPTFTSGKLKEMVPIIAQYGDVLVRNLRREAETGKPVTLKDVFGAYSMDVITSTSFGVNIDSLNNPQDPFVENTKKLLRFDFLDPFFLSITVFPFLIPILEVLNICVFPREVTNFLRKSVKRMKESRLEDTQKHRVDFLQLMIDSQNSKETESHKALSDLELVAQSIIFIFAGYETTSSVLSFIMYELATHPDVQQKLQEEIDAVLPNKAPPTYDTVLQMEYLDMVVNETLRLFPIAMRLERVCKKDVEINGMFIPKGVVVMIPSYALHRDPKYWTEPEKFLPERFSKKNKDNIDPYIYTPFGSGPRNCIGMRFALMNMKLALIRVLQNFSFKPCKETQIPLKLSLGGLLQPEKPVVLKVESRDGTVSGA

[4] = target: T2, Cytochrome P450 1A2 (Homo sapiens, UniProt P05177);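 note: PubChem cytochrome P450 panel assay, CYP1A2 panel member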
T2 sequence (P05177 whole entry): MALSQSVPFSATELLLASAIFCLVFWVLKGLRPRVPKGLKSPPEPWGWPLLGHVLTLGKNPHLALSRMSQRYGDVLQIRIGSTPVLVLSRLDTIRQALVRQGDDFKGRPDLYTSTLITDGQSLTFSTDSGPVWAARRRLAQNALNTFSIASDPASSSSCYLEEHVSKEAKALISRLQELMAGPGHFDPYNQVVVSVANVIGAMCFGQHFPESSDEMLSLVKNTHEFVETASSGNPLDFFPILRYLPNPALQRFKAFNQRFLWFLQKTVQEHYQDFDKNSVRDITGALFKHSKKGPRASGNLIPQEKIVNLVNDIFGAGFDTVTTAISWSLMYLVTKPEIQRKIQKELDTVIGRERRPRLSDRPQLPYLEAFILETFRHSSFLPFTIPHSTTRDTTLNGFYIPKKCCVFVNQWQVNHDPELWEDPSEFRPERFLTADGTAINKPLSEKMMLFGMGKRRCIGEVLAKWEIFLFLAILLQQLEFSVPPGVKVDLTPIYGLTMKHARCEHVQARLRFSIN

[5] = Luminescence Cell-Based Dose Response HTS to Identify Activators of Luciferase Translation or Activity in H4 […] Cells. [Related pubchem assays: 1829 (Project Summary), 1814 (Primary HTS)]; format: functional
[6] = system: H4; assay: Luminescence Cell-Based Dose Response HTS to Identify Activators of 5'UTR Stem-Loop Driven Prion Protein mRNA Translation in H4 Neuroglioblastoma Cells. [Related pubchem assays: 1829 (Project Summary), 1814 (Primary HTS)]; format: functional; conditions: Homo sapiens
[7] = target: T3, Calpain-2 catalytic subunit (Sus scrofa, UniProt P43367); assay: pig calpain II inhibitor potency, dose response, biochemical, fluorogenic peptide substrate (AID 1420); format: functional
T3 sequence (P43367 whole entry): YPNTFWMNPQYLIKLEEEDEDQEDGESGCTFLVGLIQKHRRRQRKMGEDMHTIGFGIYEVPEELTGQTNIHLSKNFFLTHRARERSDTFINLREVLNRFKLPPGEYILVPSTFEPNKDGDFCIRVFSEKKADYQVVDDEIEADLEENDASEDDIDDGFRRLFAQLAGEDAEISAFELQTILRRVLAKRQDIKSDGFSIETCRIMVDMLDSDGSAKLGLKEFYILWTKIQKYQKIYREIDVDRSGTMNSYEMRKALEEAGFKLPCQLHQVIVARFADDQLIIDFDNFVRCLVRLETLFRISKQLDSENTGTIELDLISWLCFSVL

[8] = target: Cytochrome P450 2C19 (Homo sapiens, UniProt P33261); assay: Cytochrome panel assay with activity outcomes. Panel member name: p450-cyp2c19 Compounds with AC50 equal or less than 10 uM are considered active; format: functional; conditions: read-out: AC50
Chain of Cytochrome P450 2C19 (P33261 whole entry): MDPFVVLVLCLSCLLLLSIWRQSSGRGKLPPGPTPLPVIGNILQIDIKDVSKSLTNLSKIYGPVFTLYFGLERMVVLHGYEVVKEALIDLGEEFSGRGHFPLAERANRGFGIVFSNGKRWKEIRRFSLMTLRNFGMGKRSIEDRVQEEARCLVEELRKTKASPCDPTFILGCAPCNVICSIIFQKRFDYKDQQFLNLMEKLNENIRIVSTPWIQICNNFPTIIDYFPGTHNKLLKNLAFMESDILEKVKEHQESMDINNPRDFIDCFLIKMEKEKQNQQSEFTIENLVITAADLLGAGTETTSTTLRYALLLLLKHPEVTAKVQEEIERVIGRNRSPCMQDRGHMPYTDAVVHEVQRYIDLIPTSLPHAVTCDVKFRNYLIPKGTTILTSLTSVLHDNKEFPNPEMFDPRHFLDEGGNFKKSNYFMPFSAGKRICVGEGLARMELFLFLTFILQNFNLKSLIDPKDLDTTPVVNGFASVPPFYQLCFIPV

[9] = system: Streptococcus; assay: Group A Streptococcus viability loss, dose response, counter-screen for streptokinase expression inhibitor project, luminescence, BacTiterGlo (AID 1915); format: functional, organism-based;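 note: potency for reduction of bacterial viability or growth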
[10] = inhibitors of SNCA 5'UTR-driven reporter translation, confirmation, H4 neuroglioma cells, luminescence (AID 1988); format: functional, cell-based
[11] = system: Streptococcus sp. 'group A'; assay: growth inhibition of control SK(-) GAS strain, dose response, counter-screen for streptokinase expression inhibitor project, luminescence, kanamycin, BacTiterGlo, confirmation (AID 1900); format: functional, organism-based
[12] = Luminescence Cell-Based Dose Response HTS to Identify Inhibitors of 5'UTR Stem-Loop Driven Prion Protein mRNA Translation in H4 Neuroglioblastoma Cells. [Related pubchem assays: 1827 (Project Summary), 1813 (Primary HTS)]; format: functional
[13] = inhibitors of firefly luciferase expression or activity, dose response, H4 neuroglioma cells, luminescence (AID 1990); format: functional, cell-based
[14] = target: T4, Streptokinase A (Streptococcus pyogenes serotype M1, UniProt P10520); assay: S. pyogenes streptokinase expression inhibitors, potency, dose response, plasminogen activation absorbance, OD405 (AID 1914); format: functional, Streptococcus pyogenes M1 GAS;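 note: secreted streptokinase activity via plasminogen activation per viability signal from cell pellet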
T4 sequence (P10520 whole entry): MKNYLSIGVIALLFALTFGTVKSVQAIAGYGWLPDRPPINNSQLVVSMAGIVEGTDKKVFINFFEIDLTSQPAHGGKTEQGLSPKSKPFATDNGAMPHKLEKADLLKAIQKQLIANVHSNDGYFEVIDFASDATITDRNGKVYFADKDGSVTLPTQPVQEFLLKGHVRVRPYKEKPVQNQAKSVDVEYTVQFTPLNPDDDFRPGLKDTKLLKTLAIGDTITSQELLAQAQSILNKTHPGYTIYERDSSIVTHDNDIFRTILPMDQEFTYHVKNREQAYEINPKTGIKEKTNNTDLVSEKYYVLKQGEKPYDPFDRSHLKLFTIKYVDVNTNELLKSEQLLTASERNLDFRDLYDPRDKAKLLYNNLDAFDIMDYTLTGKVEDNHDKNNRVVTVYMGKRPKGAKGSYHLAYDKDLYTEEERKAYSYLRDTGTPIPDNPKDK

[15] = target: Cytochrome P450 2C9 (Homo sapiens, UniProt P11712)
Chain of Cytochrome P450 2C9 (P11712 whole entry): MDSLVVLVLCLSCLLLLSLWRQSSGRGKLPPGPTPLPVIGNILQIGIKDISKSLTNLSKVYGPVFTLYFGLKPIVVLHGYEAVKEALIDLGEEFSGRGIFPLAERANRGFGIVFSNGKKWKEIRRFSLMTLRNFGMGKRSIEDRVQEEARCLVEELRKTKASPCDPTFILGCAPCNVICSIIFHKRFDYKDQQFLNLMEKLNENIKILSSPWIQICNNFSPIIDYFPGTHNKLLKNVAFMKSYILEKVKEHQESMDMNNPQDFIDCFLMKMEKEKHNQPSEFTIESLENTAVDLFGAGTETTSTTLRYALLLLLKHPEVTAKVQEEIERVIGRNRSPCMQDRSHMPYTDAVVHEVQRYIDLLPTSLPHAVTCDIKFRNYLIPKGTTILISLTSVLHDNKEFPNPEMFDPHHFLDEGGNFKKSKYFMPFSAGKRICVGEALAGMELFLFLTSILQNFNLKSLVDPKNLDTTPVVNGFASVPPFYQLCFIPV

Row | Structure (SMILES) | EC50 [1] | IC50 [2] | AC50 [3] | other results
1 | COc1ccccc1-n1c(=S)sc2c(=O)n(Cc3ccco3)c(SC)nc21 | > 53 µM (inactive) | > 47.1 µM (inactive) |  | 
2 | Cc1cccc(C(=O)N2CCN(c3ccc([N+](=O)[O-])c(NCc4ccco4)c3)CC2)c1 |  |  | 28.2 µM (inconclusive) | 
3 | CCNc1ncc2nc(-c3ccc(OC)cc3)c(=O)n(Cc3cccs3)c2n1 |  |  | 7.94 µM (inconclusive) | AC50 [4]: 631 nM (inconclusive)
4 | O=C(Nc1nnc(C2CC2)s1)C1Cc2ccccc2CN1S(=O)(=O)c1ccccc1F (stereo not drawn) |  |  |  | EC50 [5]: 123 nM (active); EC50 [6]: > 120 µM (not active)
5 | CS(=O)(=O)N1CCC[C@@]2(CCN(c3ccccn3)C2)C1 |  |  | 20 µM (inconclusive) | 
6 | COc1ccc(C(=O)Nc2ccc(S(=O)(=O)NC(C)(C)C)cc2)cc1[N+](=O)[O-] |  |  |  | IC50 [7]: 4.14 µM (not active)
7 | CCS(=O)(=O)NCCc1cc2ccc(C)cc2nc1O |  |  | 39.8 µM (inconclusive) | AC50 [8]: 10 µM (inconclusive)
8 | O=[N+]([O-])c1ccc(Cl)cc1Sc1nc2ccccc2o1 |  |  |  | EC50 [9]: 7.26 µM (active); EC50 [10]: > 120 µM (not active); EC50 [11]: 2.25 µM (active); EC50 [12]: > 120 µM (not active); EC50 [13]: > 120 µM (not active); EC50 [14]: 6.18 µM (active)
9 | O=C(Oc1ccccc1)N1CCC2(CCCN(c3cccc(-c4ccccc4)c3)C2)CC1 |  |  | 15.8 µM (inconclusive) | 
10 | O=C1C[N+]([O-])=Cc2[nH]c3ccccc3c2N1c1ccc([N+](=O)[O-])cc1 |  |  |  | IC50 [7]: 4.76 µM (not active)
11 | Cc1ccc2c(CC(=O)NCC(=O)Nc3c(C)cccc3C)coc2c1 | > 53 µM (inactive) | > 47.1 µM (inactive) |  | 
12 | Cc1ccc(-c2csc(/C=C3\SC(C)C(=O)N3CC(=O)Nc3ccccc3F)n2)cc1 (stereo not drawn) |  |  |  | IC50 [7]: 10.6 µM (active)
13 | COc1cc(NC(=S)NCCC(c2ccccc2)c2ccccc2)c(OC)cc1Cl | > 53 µM (inactive) | 4.69 µM (active) |  | 
14 | CCc1nc(N2CCC3(CC2)OCCO3)c2nnn(Cc3ccccc3Cl)c2n1 |  |  | 15.8 µM (inconclusive) | 
15 | Cc1ccccc1CN(C)C(=O)COC(=O)c1ccc2[nH]c(C)c(C)c2c1 | > 53 µM (inactive) | > 47.1 µM (inactive) |  | 
16 | CCOC(=O)C1CCCN(S(=O)(=O)c2ccccc2)C1 (stereo not drawn) | > 53 µM (inactive) | > 47.1 µM (inactive) |  | 
17 | CCOCCCN(CC(=O)NC1CCCC1)C(=O)C(=O)Nc1ccc2c(c1)OCCO2 | > 53 µM (inactive) | > 47.1 µM (inactive) |  | 
18 | CCN(CC)CCCCCCCCOC(=O)c1cc(OC)c(OC)c(OC)c1 |  |  | 10 µM (inconclusive) | 
19 | CCOc1ccc2c(c1)s/c(=N/C(=O)C1CC1)n2C |  |  |  | EC50 [5]: 508 nM (active); EC50 [6]: 63.4 µM (active)
20 | Cc1ccc(/N=C/c2nc(/C=C/c3cccc([N+](=O)[O-])c3)oc2O)cc1 |  |  | 3.16 µM (inconclusive) | AC50 [8]: 7.94 µM (inconclusive); AC50 [4]: 2000 nM (inconclusive); AC50 [15]: 17.8 µM (inconclusive)
